Source: the supplement of paper PMC10307832

Assays:
Assay in all cases: relative viability (nuclei count vs DMSO), 5 days (fraction); higher = more cells survive
EHT 1864 + Trametinib = compound: C1COCCN1CC2=CC(=O)C(=CO2)OCCCCCSC3=C4C=CC(=CC4=NC=C3)C(F)(F)F [EHT 1864] + CC(=O)Nc1cccc(-n2c(=O)n(C3CC3)c(=O)c3c(Nc4ccc(I)cc4F)n(C)c(=O)c(C)c32)c1 [Trametinib] (partner 0.02 µM)
Outline: (§1)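 Lung cancer cell lines were pin-tool dosed in 1536-well plates on the day after seeding, with either a lone drug or a fixed anchor-drug dose plus five library-drug doses (not always all listed) in √10 steps. Nuclei were counted on 4× images after 5 days. Relative viability is the ratio of treated-well to vehicle-well nuclei counts, with each value a median of duplicate plates.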

EHT 1864 + Lapatinib = compound: C1COCCN1CC2=CC(=O)C(=CO2)OCCCCCSC3=C4C=CC(=CC4=NC=C3)C(F)(F)F [EHT 1864] + CS(=O)(=O)CCNCc1ccc(-c2ccc3ncnc(Nc4ccc(OCc5cccc(F)c5)c(Cl)c4)c3c2)o1 [Lapatinib] (partner 2 µM)
Outline: as §1

EHT 1864 + Phenformin = compound: C1COCCN1CC2=CC(=O)C(=CO2)OCCCCCSC3=C4C=CC(=CC4=NC=C3)C(F)(F)F [EHT 1864] + N=C(N)NC(=N)NCCc1ccccc1 [Phenformin] (partner 250 µM)
Outline: as §1

EHT 1864 + Olaparib = compound: C1COCCN1CC2=CC(=O)C(=CO2)OCCCCCSC3=C4C=CC(=CC4=NC=C3)C(F)(F)F [EHT 1864] + O=C(c1cc(Cc2n[nH]c(=O)c3ccccc23)ccc1F)N1CCN(C(=O)C2CC2)CC1 [Olaparib] (partner 8 µM)
Outline: as §1

| Cell Line | relative viability (EHT 1864 + Trametinib; first compound 0.04 µM) | relative viability (EHT 1864 + Trametinib; first compound 0.1265 µM) | relative viability (EHT 1864 + Trametinib; first compound 0.4 µM) | relative viability (EHT 1864 + Trametinib; first compound 1.265 µM) | relative viability (EHT 1864 + Trametinib; first compound 4 µM) | relative viability (EHT 1864 + Lapatinib; first compound 0.04 µM) | relative viability (EHT 1864 + Lapatinib; first compound 0.1265 µM) | relative viability (EHT 1864 + Lapatinib; first compound 0.4 µM) | relative viability (EHT 1864 + Lapatinib; first compound 1.265 µM) | relative viability (EHT 1864 + Lapatinib; first compound 4 µM) | relative viability (EHT 1864 + Phenformin; first compound 0.04 µM) | relative viability (EHT 1864 + Phenformin; first compound 0.1265 µM) | relative viability (EHT 1864 + Phenformin; first compound 0.4 µM) | relative viability (EHT 1864 + Phenformin; first compound 1.265 µM) | relative viability (EHT 1864 + Phenformin; first compound 4 µM) | relative viability (EHT 1864 + Olaparib; first compound 0.04 µM) | relative viability (EHT 1864 + Olaparib; first compound 0.1265 µM) | relative viability (EHT 1864 + Olaparib; first compound 0.4 µM) | relative viability (EHT 1864 + Olaparib; first compound 1.265 µM) | relative viability (EHT 1864 + Olaparib; first compound 4 µM) |
| --- | --- | --- | --- | --- | --- | --- | --- | --- | --- | --- | --- | --- | --- | --- | --- | --- | --- | --- | --- | --- |
| HCC-827 | 0.618 | 0.611 | 0.597 | 0.555 | 0.548 | 0.233 | 0.204 | 0.219 | 0.164 | 0.191 | 0.407 | 0.347 | 0.396 | 0.432 | 0.329 | 0.79 | 0.641 | 0.625 | 0.652 | 0.633 |
| HCC-78 | 0.633 | 0.66 | 0.842 | 0.645 | 0.777 | 0.875 | 0.525 | 0.382 | 0.345 | 1.05 | 0.635 | 0.604 | 0.694 | 0.746 | 0.733 | 0.781 | 0.887 | 0.773 | 0.868 | 0.92 |
| NCI-H2085 | 0.417 | 0.533 | 0.514 | 0.604 | 0.543 | 0.809 | 0.678 | 0.807 | 0.716 | 0.744 | 0.731 | – | 0.832 | 0.808 | 0.732 | 0.783 | 0.762 | 0.754 | 0.732 | 0.713 |
| PC-14 | 0.741 | 0.672 | 0.796 | 0.68 | 0.88 | 0.316 | 0.28 | 0.325 | 0.294 | 0.272 | 0.652 | – | 0.615 | 0.594 | 0.513 | 0.264 | 0.36 | 0.266 | 0.331 | 0.265 |
| NCI-H2342 | 0.71 | 0.681 | 0.759 | 0.874 | 0.935 | – | – | – | – | – | 0.546 | 0.52 | 0.621 | 0.523 | 0.678 | 0.402 | 0.409 | 0.474 | 0.39 | 0.451 |
| A-427 | 0.698 | 0.837 | 0.758 | 0.812 | 0.736 | 1.09 | 1.06 | 1 | 1.09 | 1.07 | 0.343 | 0.309 | 0.282 | 0.285 | 0.265 | 0.768 | 0.734 | 0.778 | 0.678 | 0.713 |
| H3255 | 0.561 | 0.527 | – | 0.65 | 0.67 | 0.235 | 0.239 | 0.275 | 0.298 | 0.317 | 0.383 | 0.394 | 0.424 | 0.36 | 0.399 | 0.56 | 0.537 | 0.573 | 0.55 | 0.569 |
| HCC-44 | 1.08 | 0.977 | 0.961 | 0.967 | 1.11 | 1.04 | 0.822 | 0.955 | 1.05 | 0.965 | 0.193 | 0.13 | 0.203 | 0.218 | 0.221 | 1.04 | 0.896 | 1.01 | 0.92 | 1.02 |
| NCI-H1734 | 0.781 | 0.709 | 0.643 | 0.592 | 0.61 | 1.08 | 0.86 | 1.09 | 1.01 | 1.12 | 0.539 | – | 0.397 | 0.433 | 0.432 | 0.71 | 0.64 | 0.619 | 0.679 | 0.635 |
| NCI-H2228 | 0.553 | 0.566 | 0.389 | – | 0.533 | 1.08 | 0.68 | 1.03 | 1.13 | 1.02 | 0.37 | 0.232 | 0.345 | 0.288 | 0.52 | 0.614 | 0.661 | 0.66 | – | 0.61 |
| ABC-1 | – | – | – | – | – | 1.06 | 1.15 | 0.949 | 0.729 | 1.15 | 0.24 | 0.258 | 0.208 | 0.273 | 0.218 | 1.24 | 0.695 | 0.861 | 0.629 | 0.762 |
| COR-L23 | 0.524 | 0.453 | 0.598 | 0.631 | 0.553 | 0.975 | 0.814 | 0.86 | 0.825 | 0.889 | 0.53 | 0.368 | 0.484 | 0.5 | 0.491 | 0.35 | 0.359 | 0.314 | 0.392 | 0.213 |
| NCI-H661 | 0.527 | 0.53 | 0.616 | 0.565 | 0.498 | 0.429 | 0.488 | 0.511 | 0.429 | 0.503 | 0.339 | 0.273 | 0.301 | 0.302 | 0.269 | 0.799 | 0.685 | 0.684 | 0.606 | 0.567 |
| ChaGo-K-1 | 0.839 | 0.85 | 0.89 | 0.911 | 0.871 | – | – | – | – | – | 0.497 | 0.427 | 0.544 | 0.48 | 0.463 | 0.403 | 0.442 | 0.443 | 0.406 | 0.349 |
| EBC-1 | – | – | – | – | – | 0.222 | 0.225 | 0.194 | 0.19 | 0.238 | – | – | – | – | – | 0.74 | 0.689 | 0.671 | 0.696 | 0.574 |
| NCI-H441 | 0.365 | – | 0.544 | 0.573 | 0.51 | – | – | – | – | – | 0.845 | 0.604 | 0.717 | 0.853 | 0.932 | 0.562 | – | 0.503 | 0.477 | 0.617 |
| A549 | – | – | – | – | – | 0.927 | 0.894 | 0.996 | 0.914 | 0.625 | 0.267 | 0.14 | 0.186 | 0.0995 | 0.168 | 0.302 | 0.299 | 0.368 | 0.246 | 0.428 |
| NCI-H1703 | – | – | – | – | – | 0.796 | 0.857 | 1.21 | 1.01 | 0.854 | – | – | – | – | – | 0.396 | – | 0.461 | 0.277 | 0.291 |
| LCLC-103H | 0.701 | 0.612 | 0.655 | 0.588 | 0.55 | – | – | – | – | – | 0.356 | 0.271 | 0.357 | 0.33 | 0.391 | 0.742 | 0.694 | 0.739 | 0.718 | 0.734 |
| NCI-H1563 | – | – | – | – | – | 1.01 | 0.986 | 0.953 | 0.949 | 0.813 | 0.672 | 0.64 | 0.675 | 0.677 | 0.685 | – | – | – | – | – |
